Patent publication US5554359A, “Pigmentation enhancer and method” (priority 1994, dated 1996)
Read-outs that look alike come from different tables or passages of the source.

Legend:
[1] = tested on: tyrosinase activity in mouse melanoma cells; experiment: Tyrosinase responses in mouse melanoma cells (Table 6); format: cell-based; details: for Effect on Tyrosinase Activity, Mouse Melanoma: Table 6, 10^-7 M except IBMX 10^-4 M, theophylline 1 mM, ammonium chloride 10 mM, A23187 not given
Experimental: (§1) The mouse melanoma cell lines used to study the effects of lysosomotropic agents herein were the Cloudman S91 cell line (ATCC no. CCL 53.1) and two subclones of this line developed in our laboratory, the amelanotic line, AM-7, and a melanotic line, MEL-11A. All melanoma cell lines were grown in Ham's F-10 nutrient medium supplemented with 10% horse serum, penicillin (100 units/ml), and streptomycin (100 μg/ml). The normal human melanocyte cell strains used in this study were derived from foreskins of either neonares or from boys 2-6 years old. Human melanocyte cultures were grown in Ham's F-10 nutrient medium supplemented with 10% horse serum, 5% fetal bovine serum (FBS), 32 nM TPA (12-O-tetradecanoylphorbol 13-acetate), 10^-4 M IBMX(3-isobutyl-1-methylxanthine), penicillin (100 units/ml), and streptomycin (100 μg/ml).
To determine tyrosinase activity in situ in either melanoma cells or in human melanocyte cultures, the tyrosine hydroxylase activity of the enzyme was determined. Cells were seeded into 60-mm culture dishes at 2×10^5 cells/dish and allowed to attach overnight. The medium was then exchanged for the appropriate growth medium supplemented with 1 μCi/ml of [^3 H]tyrosine (L-ring-3,5-^3 H]-tyrosine, DuPont New England Nuclear), and with hormones, where indicated. Cells were grown in labeled medium for 24 hours, and at this time, the medium was removed and assayed for the presence of ^3 H2 O using the charcoal absorption method of Pomerantz. Tyrosinase activity in cell homogenates was determined by sonicating cell pellets in 0.1-M sodium phosphate buffer (pH 6.8) and then incubating 50-μl aliquots in 0.5 ml of a reaction mixture containing 0.1-mM tyrosine, 2 μCi/ml of [^3 H]tyrosine, 0.1-mM L-DOPA (dihydroxyphenylalanine), and 0.1 mM PMSF (phenylmethylsulfonyl fluoride) at 37° C. for 2 hours. Reactions were terminated by the addition of 1 ml of charcoal (10% w/v in 0.1-N HCl). Samples were centrifuged, and the supernatants removed for determination of the amount of ^3 H2 O produced. […]

[2] = tested on: tyrosinase activity in human melanocytes; experiment: Tyrosinase responses in human melanocytes (Table 6); format: cell-based; details: Table 6, 10^-7 M except IBMX 10^-4 M, theophylline 1 mM, ammonium chloride 10 mM, A23187 not given, melanocytes from skin type III
Experimental: as §1
(§2) To determine tyrosinase activity in situ in either melanoma cells or in human melanocyte cultures, the tyrosine hydroxylase activity of the enzyme was determined. Cells were seeded into 60-mm culture dishes at 2×10^5 cells/dish and allowed to attach overnight. The medium was then exchanged for the appropriate growth medium supplemented with 1 μCi/ml of [^3 H]tyrosine (L-ring-3,5-^3 H]-tyrosine, DuPont New England Nuclear), and with hormones, where indicated. Cells were grown in labeled medium for 24 hours, and at this time, the medium was removed and assayed for the presence of ^3 H2 O using the charcoal absorption method of Pomerantz. Tyrosinase activity in cell homogenates was determined by sonicating cell pellets in 0.1-M sodium phosphate buffer (pH 6.8) and then incubating 50-μl aliquots in 0.5 ml of a reaction mixture containing 0.1-mM tyrosine, 2 μCi/ml of [^3 H]tyrosine, 0.1-mM L-DOPA (dihydroxyphenylalanine), and 0.1 mM PMSF (phenylmethylsulfonyl fluoride) at 37° C. for 2 hours. Reactions were terminated by the addition of 1 ml of charcoal (10% w/v in 0.1-N HCl). Samples were centrifuged, and the supernatants removed for determination of the amount of ^3 H2 O produced.
Hormone responsiveness in human melanocyte cell cultures were examined (for these studies, melanocytes derived from skin type III were used). […] Tyrosinase activity and melanin content typically double with a 48-hour exposure to IBMX. […] The steroid hormones, for the most part, caused little, if any, change in tyrosinase activity at the concentrations used.

[3] = tested on: tyrosinase activity in mouse melanoma cells; details: Cloudman S91; cited from earlier work
[4] = tested on: tyrosinase activity in human foreskin organ cultures; experiment: Tyrosinase activity in human foreskin organ cultures (tyrosine hydroxylase assay); format: cell-based; details: for activity at 1000 µM: Homo sapiens, read-out: Tyrosinase Activity, Percentage of control; for activity at 1000 µM / Tyrosinase activity stimulated, percentage of black foreskins / Tyrosinase activity unaffected, percentage of black foreskins / Tyrosinase activity stimulated, percentage of white foreskins / Tyrosinase activity unaffected, percentage of white foreskins: 72 h; for activity at 1000 µM / Tyrosinase Activity: Table 3, theophylline 1 mM, 3 days; for Tyrosinase activity stimulated, percentage of black foreskins / Tyrosinase activity unaffected, percentage of black foreskins / Tyrosinase activity stimulated, percentage of white foreskins / Tyrosinase activity unaffected, percentage of white foreskins: Table 1, Theophylline 1 mM, MSH 2 × 10^-7 M, dbcAMP 0.1 mM, D-phe-MSH 10^-8 M; for Tyrosinase activity stimulated, percentage of black foreskins / Tyrosinase activity unaffected, percentage of black foreskins: B = black; for Tyrosinase activity stimulated, percentage of white foreskins / Tyrosinase activity unaffected, percentage of white foreskins: W = white; for stimulation of tyrosinase activity: human foreskins, 72 hours
Experimental: At the time of surgical removal, human foreskins were placed on sterile gauze saturated with sterile IMDM medium (Iscove's modified Dulbecco's medium purchased from Irvine Scientific of Santa Ana, Calif.) for transportation from the Hospital nursery to the laboratory. The tissues were rinsed in sterile IMDM medium containing 500 U/ml penicillin and 500 μg/ml of streptomycin for 5 minutes. Under sterile conditions, an intradermal injection of medium was performed from the dermal side prior to dissection of the mucous membrane and lower dermis by scissors to make the thickness of skins equal. The foreskins were then cut into approximately 3 mm×3 mm squares and either frozen at -75° C. or placed in organ culture as described hereafter.
The organ culture medium was prepared from IMDM with glutamine supplemented with 20% horse serum, 5% fetal bovine serum, 100 U/ml penicillin, 100 μg/ml streptomycin and 3 mg/ml sodium bicarbonate. The serums were obtained from Hyclone Lab. Inc. of Logan Utah. Culture units were prepared by placing sterilized filters (AP20 025 00, Millipore) over sterilized support screens ([…] Swinnex filter support screens, Millipore) in the wells of 6-well tissue culture plates (Falcon 3046) with medium added to the wells such that the skin support screens floated and the filter absorbed the medium from beneath. The tissue samples were placed, epidermis up, on top of the saturated filters and incubated at 37° C. in a 5% CO2 humidified atmosphere. The medium was changed everyday. Harvested cultures were frozen at -75° C.
Tyrosinase activity in human skin organ cultures was determined by measuring the tyrosine hydroxylase activity of the enzyme. The assay measures the production of ^3 H2 O during the conversion of [^3 H]tyrosine to L-DOPA. Weighed skin preparations were incubated in 0.3 ml of a reaction mixture containing 0.01 mM of L-tyrosine, 5-6 uCi/ml of [^3 H]tyrosine and 0.1 mM L-DOPA in 0.1M of pH 6.8 phosphate buffer for 4 hours at 37° C. To terminate the reaction, 1 ml of phosphate buffer was added, the tubes vortexed, and 0.4 ml aliquots removed in triplicate and mixed with an equal volume of Norit SG activated charcoal (10% w/v, in 0.1N HCl). Following centrifugation at 2000×g for 10 min, the supernatants (0.5 ml) were placed in scintillation vials, scintillation fluid added, and vials counted in a TM Analytic 6895 scintillation counter equipped with a DPM processor.
Human foreskins were treated with the compounds shown in Table 1, placed in culture, and incubated for 72 hours. The skins were then assayed for tyrosinase activity with the tyrosine hydroxylase assay method as described herein.
The medium and compounds were changed daily. Tyrosinase activity was determined by measuring the tyrosine hydroxylase activity of the enzyme.
Human foreskin organ cultures were treated with the compounds listed in Table 3 for 3 days and tyrosinase activity determined as described herein. Theophylline was used at 1 mM.

[5] = tested on: tyrosinase activity in human melanocytes from white-skinned individuals; experiment: Tyrosinase activity in human melanocytes from white skin; format: cell-based; details: cell strain 69W; up to four hours; FIG. 8
Experimental: as §1, §2
Dose/response parameters for ammonium chloride action were determined. […] Since tyrosinase is the rate-limiting enzyme for melanin synthesis, the stimulation of this enzyme by ammonium chloride should lead to increased melanin content of stimulated cells. […] Ammonium chloride increased tyrosinase activity in melanocytes from white-skinned individuals twenty-fold within 24 hours and by this time melanin contents had increased two-fold. Two other lysosomotropic agents, monensin and nigericin, were tested for their effects on tyrosinase activity. […] Thus, lysosomotropic agents have the ability to stimulate tyrosinase activity and melanin production in human melanocytes derived from white-skinned individuals, and to reduce melanin production in melanocytes from black-skinned people.

[6] = White skin (control 0.31 ± 0.03)
[7] = first Black skin (control 2.55 ± 0.13)
[8] = second Black skin (control 3.09 ± 0.12)

## CNc1ccc2oc(C[C@H]3O[C@@]4(CC[C@H]3C)O[C@H]([C@H](C)C(=O)c3ccc[nH]3)[C@H](C)C[C@H]4C)nc2c1C(=O)O [A23187]
[1]
  Effect on Tyrosinase Activity, Mouse Melanoma: Inhibited
[2]
  Effect on Tyrosinase Activity, Human Melanocyte: No effect

## CCCCC[C@H](O)/C=C/[C@H]1[C@H](O)CC(=O)[C@@H]1CCCCCCC(=O)O [Prostaglandin E1]
[2]
  Effect on Tyrosinase Activity, Human Melanocyte: + (150-200%)

## Nc1ncnc2c1nc(Br)n2[C@@H]1O[C@@H]2COP(=O)(O)O[C@H]2[C@H]1O [8-bromo cAMP]
[3]
  mimicking of the MSH response: mimicked

## C[C@]12CC[C@@H]3c4ccc(O)cc4CC[C@H]3[C@@H]1CC[C@@H]2O [Estradiol]
[1]
  Effect on Tyrosinase Activity, Mouse Melanoma: No Effect
[2]
  Effect on Tyrosinase Activity, Human Melanocyte: Inhibited

## C[C@]12CC[C@H]3[C@@H](CCC4=CC(=O)CC[C@@]43C)[C@@H]1CC[C@@H]2O [Testosterone]
[1]
  Effect on Tyrosinase Activity, Mouse Melanoma: No effect
[2]
  Effect on Tyrosinase Activity, Human Melanocyte: No effect

## Cn1c(=O)c2[nH]cnc2n(C)c1=O [Theophylline, theophylline]
[3]
  mimicking of the MSH response: mimicked
[1]; compounds that raise intracellular cAMP levels or MSH
  response of mouse melanoma cells: respond vigorously
[4]; [6]
  activity at 1000 µM: 307%
  Tyrosinase Activity: 0.95 ± 0.05 pmoles ^3 H2 O/hr/mg skin
[4]; [7]
  activity at 1000 µM: 212%
  Tyrosinase Activity: 5.40 ± 0.26 pmoles ^3 H2 O/hr/mg skin
[4]; [8]
  activity at 1000 µM: 197%
  Tyrosinase Activity: 6.1 ± 0.24 pmoles ^3 H2 O/hr/mg skin
[4]
  Tyrosinase activity stimulated, percentage of black foreskins: 92%
  Tyrosinase activity unaffected, percentage of black foreskins: 8%
  Tyrosinase activity stimulated, percentage of white foreskins: 86%
  Tyrosinase activity unaffected, percentage of white foreskins: 14%
  stimulation of tyrosinase activity: stronger stimulation of tyrosinase
[2]; Homo sapiens, Melanocyte, read-out: Effect on Tyrosinase Activity, Human Melanocyte
  activity at 1000 µM: 150 to 200%

## CCCCCCCCCCCCCC(=O)O[C@@H]1[C@@H](C)[C@@]2(O)[C@@H](C=C(CO)C[C@]3(O)C(=O)C(C)=C[C@@H]23)[C@@H]2C(C)(C)[C@]12OC(C)=O [TPA, 12-O-tetradecanoylphorbol 13-acetate]
[2]
  Effect on Tyrosinase Activity, Human Melanocyte: No effect

## CCCC(=O)Nc1ncnc2c1ncn2[C@@H]1O[C@@H]2COP(=O)(O)O[C@H]2[C@H]1OC(=O)CCC [dbcAMP, dibutyryl cyclic AMP]
[3]
  mimicking of the MSH response: mimicked
[4]
  Tyrosinase activity stimulated, percentage of black foreskins: 33%
  Tyrosinase activity unaffected, percentage of black foreskins: 67%
  Tyrosinase activity stimulated, percentage of white foreskins: 25%
  Tyrosinase activity unaffected, percentage of white foreskins: 75%
  stimulation of tyrosinase activity: less effective in stimulating tyrosinase activity

## C=C1CC[C@H](O)C/C1=C/C=C1\CCC[C@]2(C)[C@@H]([C@H](C)CCCC(C)C)CC[C@@H]12 [Vitamin D3]
[1]
  Effect on Tyrosinase Activity, Mouse Melanoma: No effect
[2]
  Effect on Tyrosinase Activity, Human Melanocyte: No effect

## CO[C@@H]1C[C@@H](C[C@H]2CC[C@H](C)[C@H]([C@@H](C)C(=O)O)O2)O[C@]2(O[C@](C)([C@H]3CC[C@@](C)([C@@H]4O[C@@H]([C@H]5O[C@@](O)(CO)[C@H](C)C[C@@H]5C)C[C@@H]4C)O3)C[C@H]2C)[C@@H]1C [nigericin]
[5]
  stimulation of tyrosinase activity: stimulated tyrosinase activity

## CC(=O)[C@H]1CC[C@H]2[C@@H]3CCC4=CC(=O)CC[C@]4(C)[C@H]3CC[C@]12C [Progesterone]
[1]
  Effect on Tyrosinase Activity, Mouse Melanoma: ± (100-150% of control)
[2]
  Effect on Tyrosinase Activity, Human Melanocyte: ± (100-150% of control)

## CC1(C)O[C@@H]2C[C@H]3[C@@H]4CCC5=CC(=O)C=C[C@]5(C)[C@@]4(F)[C@@H](O)C[C@]3(C)[C@]2(C(=O)CO)O1 [Triamcinolone acetonide]
[1]
  Effect on Tyrosinase Activity, Mouse Melanoma: ± (100-150% of control)
[2]
  Effect on Tyrosinase Activity, Human Melanocyte: ± (100-150% of control)

## Insulin: Insulin
[2]
  Effect on Tyrosinase Activity, Human Melanocyte: No effect

## CC[C@@]1([C@@H]2O[C@@H]([C@H]3O[C@@](O)(CO)[C@H](C)C[C@@H]3C)C[C@@H]2C)CC[C@H]([C@]2(C)CC[C@]3(C[C@H](O)[C@@H](C)[C@@H]([C@@H](C)[C@@H](OC)[C@H](C)C(=O)O)O3)O2)O1 [monensin]
[5]
  stimulation of tyrosinase activity: stimulated tyrosinase activity
